Reference: US20220241202A1, “METHOD AND VEHICLE FOR DELIVERING AGENTS ACROSS THE BLOOD-BRAIN BARRIER” (priority 2019, published 2022)
Positions count from the first letter of the chain named. In names and notes the source's numbering stands.

Tests used:
naive CAD cells = experiment: EV delivery of GFP-72Q huntingtin^exon1 cargo to naive recipient CAD cells (live cell fluorescence imaging); assay type: cell-based; details: for GFP-72Q huntingtin^exon1 cargo / aggregates in recipient CAD cells after media application: conditioned media applied to naive cells, imaged 1-48 hours
Method: Images of live cells were taken with the EVOS FL Auto Imaging System. Images of donor cells were taken at the time of media collection. Images of recipient cells were taken between 1-48 hours. The intensity of the GFP-72Q huntingtin^exon1 varied among cells and a single slider was used until the on-screen brightness of the lowest intensity aggregate was satisfactory and used this setting to capture images in high-quality mode. Where indicated, after the 300×g for 5 minutes conditioned media spin to remove cell debris, 60 μl of Exo-Red (SBI) was incubated with 1 ml media containing EVs for 10 minutes at 37° C. to label the RNA EV cargo. 150 μl of exo-quick was added, the labelled EVs were placed on ice for 30 min and then centrifuged for 3 minutes at 20,000×g. The labelled EV pellet was resuspended in 1 ml of DMEM-F12 media and applied to target cells.

CAD cells [1] = experiment: Western blot / dot blot analysis of GFP-72Q huntingtin^exon1 in EVs collected from CAD cells; assay type: cell-based
Method: (§1) Cell lines were transfected with the molecular chaperone CSPα and a GFP-tagged protein. CAD cells (catecholaminergic derived CNS cells) were the cell line utilized. Other cell lines, including patient-derived cell lines, may also be utilized. cDNAs encoding for myc-tagged CSPα or vector alone and GFP-72Q huntingtin^exon1 were transiently transfected with Lipofectamine™ 3000 (Invitrogen) in Opti-MEM™ medium. Media was changed to serum-free media 6 hours post-transfection. Media was collected 48 hours after transfection, spun at 300×g for 5 min to remove cell debris and evaluated without further processing by nanocyte tracking analysis, nanoscale flow cytometry analysis and dot blot analysis. For western blot analysis, EVs were isolated from the unfractionated media by exoquick precipitation solution (SBI) and solubilized in sample buffer. Following media collection, cell viability was determined using an XTT assay (New England Biolabs). When resveratrol was used, it was added to the serum-free media 6 hours post-transfection at the time of the media change.
(§2) Proteins were separated by SDS-PAGE and electrotransferred from polyacrylamide gels to nitrocellulose membrane (0.2 μm pore size). Membranes were blocked in tris-buffered saline (TBS) containing 0.1% Tween 20, 1% BSA and then incubated with primary antibody overnight at 4° C. The membranes were washed and incubated with horseradish peroxidase-coupled secondary antibody for about 2 hours at room temperature. Bound antibodies on the membranes were detected by incubation with Pierce chemiluminescent reagent and exposure to Cdigit, LiCor (Mandel). The chemiluminescent signals were quantified using image studio digits software (Mandel). For dot blots, 10 μl of unfractionated media was spotted on a nitrocellulose membrane, dried and the membrane was processed as described above.

CAD cells [2] = experiment: Nanoscale flow cytometry of EVs secreted from CAD cells expressing GFP-72Q huntingtin^exon1; assay type: cell-based
Method: as §1
For NTA and nanoscale flow cytometry analysis, all samples were diluted 25 fold using 0.2× phosphate buffered saline that had been filtered twice through 0.2 μm filter. For NTA analysis, all samples were analyzed using the Nanosight LM10 (405 nm laser, 60 mW, software version 3.00064). Samples were analyzed in triplicate for 60 seconds per replicate with a count range of 20-100 particles per frame. A variety of NIST (Thermo Scientific 3000 Series) standards were analyzed, each the day prior to sample analysis. The system was cleaned between each sample and checked for any sample carryover using the PBS diluent. NTA measures EVs within a size range from about 30 nm to about 1,000 nm.
Samples were similarly prepared for nanoscale flow cytometry as for NTA. All samples were analyzed using the Apogee A50 flow cytometry platform. Light scatter was provided using the 405 nm laser (75 mW); GFP signal was generated using the 488 nm laser (50 mW, 535/35) and far red signal was generated using the 630 nm laser (75 mW, 680/35). All samples were analyzed for 60 seconds. Optimization was performed to insure single EVs were being analyzed and single events were triggered by light scatter only. The system was cleaned each day prior to sample analysis and a variety of silica and polystyrene standards (Apogee 1493 standards) processed for instrument set up and QC. The silica standards were used to assess the relative size range of EVs. Nanoscale flow cytometry measures EVs within a size range from about 100 nm to about 1,300 nm. […]

CAD cells [3] = experiment: Screen of J proteins for EV-mediated export of misfolded huntingtin (western blot and nanoscale flow cytometry); assay type: cell-based; details: cells expressing GFP-tagged 72Q huntingtin^exon1 and the J protein
Method: as §1, §2
Samples were similarly prepared for nanoscale flow cytometry as for NTA. All samples were analyzed using the Apogee A50 flow cytometry platform. Light scatter was provided using the 405 nm laser (75 mW); GFP signal was generated using the 488 nm laser (50 mW, 535/35) and far red signal was generated using the 630 nm laser (75 mW, 680/35). All samples were analyzed for 60 seconds. Optimization was performed to insure single EVs were being analyzed and single events were triggered by light scatter only. The system was cleaned each day prior to sample analysis and a variety of silica and polystyrene standards (Apogee 1493 standards) processed for instrument set up and QC. The silica standards were used to assess the relative size range of EVs. Nanoscale flow cytometry measures EVs within a size range from about 100 nm to about 1,300 nm.
To test whether other J proteins may also export misfolded proteins, several J proteins with reported links to neurodegeneration were screened for EV-mediated export activity. […] Alternative splicing of the DnaJB2 gene produces two isoforms, a DnaJB2short and a 42 kDa DnaJB2long isoform that undergoes C terminal geranylgeranylation. DnaJB2long was studied further. […] Extracellular milieu includes free floating co-chaperones in addition to EVs, and chaperones that adhere to EVs were expected to co-isolate with EVs. […] In fact, DnaJB11 as well as DnaJA1 were robustly secreted by CAD neurons under all conditions evaluated (FIG. 5C).

[4] = previously shown; cited from earlier work
[5] = presence of CSPα and 50 μM resveratrol

Molecule: Oc1ccc(C=Cc2cc(O)cc(O)c2)cc1 [resveratrol, Resveratrol]
- GFP cargo in recipient cells (naive CAD cells; media produced from neurons treated with 50 μM resveratrol): GFP cargo was still detected in recipient cells
- secretion of GFP-72Q huntingtin^exon1 and CSPα (western blot of EVs) (CAD cells [1]; 50 μM resveratrol): reduced secretion of GFP-72Q huntingtin^exon1 but not CSPα
- secretion of GFP-72Q huntingtin^exon1 mediated by CSPα and ANCL mutants (CAD cells [1]; 50 μM resveratrol): reduced secretion of GFP-72Q huntingtin^exon1 mediated by CSPα, CSPαL115R and CSPαΔ116
- GFP-72Q huntingtin^exon1-containing EVs (CAD cells [2]; 50 μM resveratrol 6 hours following transfection): decreasing
- total EVs exported by CAD cells (CAD cells [2]; 50 μM resveratrol 6 hours following transfection, all conditions (vector, CSPα, CSPαL115R, CSPαΔ116)): increased total EVs exported by CAD cells in all conditions
- mean size of vesicles (CAD cells [2]; 50 μM resveratrol, all conditions): increased the mean size of vesicles
- total EV secretion (CAD cells [2]; 50 μM resveratrol, control, vector and CSPα-expressing cells): increases total EV secretion
- CSPα-EV export of EVs containing GFP-72Q huntingtin^exon1 (CAD cells [2]; 50 μM resveratrol, p<0.0001): significantly reduced
- EVs containing GFP cargo within the 180-240 nm subpopulation (CAD cells [2]; [5]): 0.53%
- EVs containing GFP cargo within the <180 nm subpopulation (CAD cells [2]; [5]): 0.03%
- EVs containing GFP cargo within the >240 nm subpopulation (CAD cells [2]; [5]): 0.78%
- secretion of the 180-240 nm GFP-labelled EV pool (CAD cells [2]; resveratrol concentration response): significantly reduced secretion of the 180-240 nm GFP-labelled EV pool in a concentration-dependent manner

Molecule: DnaJA1: related J protein
- EV-mediated export of misfolded huntingtin (CAD cells [3]): did not export misfolded huntingtin

Molecule: DnaJB1: related J protein
- EV-mediated export of misfolded huntingtin (CAD cells [3]): did not export misfolded huntingtin

Molecule: DnaJC13: related J protein
- EV-mediated export of misfolded huntingtin (CAD cells [3]): did not export misfolded huntingtin

Molecule: DnaJC19: related J protein
- EV-mediated export of misfolded huntingtin (CAD cells [3]): did not export misfolded huntingtin

Molecule: α-synuclein
- GFP-72Q huntingtin^exon1 cargo / aggregates in recipient CAD cells after media application (naive CAD cells): low levels of GFP signal at 24 hours
- mutant huntingtin export with increasing protein expression (CAD cells [1]; western blot of EVs): did not result in mutant huntingtin export

B1: CSPαL115R: CSPα with the human L115R mutation that causes ANCL (protein, UniProt Q9H3Z4 1-198, looked up, variant L115R)
DnaJ homolog subfamily C …: MADQRQRSLSTSGESLYHVLGLDKNATSDDIKKSYRKLALKYHPDKNPDNPEAADKFKEINNAHAILTDATKRNIYDKYGSLGLYVAEQFGEENVNTYFVLSSWWAKALFVFCGRLTCCYCCCCLCCCFNCCCGKCKPKAPEGEETEFYVSPEDLEAQLQSDEREATDTPIVIQPASATETTQLTADSHPSYHTDGFN
- export of GFP-72Q huntingtin^exon1 [4]: promote export

B2: CSPαHPD-AAA: loss-of-function CSPα mutant that does not interact with Hsp70 ATPases (protein, UniProt Q9H3Z4 1-198, looked up, variant H43A P44A D45A)
DnaJ homolog subfamily C …: B1 DnaJ homolog subfamily C … with H43A, P44A, D45A, R115L
- GFP-72Q huntingtin^exon1 cargo / aggregates in recipient CAD cells after media application (naive CAD cells): low levels of GFP signal at 24 hours
- export of GFP-72Q huntingtin^exon1 [4]: does not

B3: CSPαΔ116: CSPα with the human L116Δ mutation that causes ANCL (protein, UniProt Q9H3Z4 1-198, looked up, variant L116*)
DnaJ homolog subfamily C …: MADQRQRSLSTSGESLYHVLGLDKNATSDDIKKSYRKLALKYHPDKNPDNPEAADKFKEINNAHAILTDATKRNIYDKYGSLGLYVAEQFGEENVNTYFVLSSWWAKALFVFCGLTCCYCCCCLCCCFNCCCGKCKPKAPEGEETEFYVSPEDLEAQLQSDEREATDTPIVIQPASATETTQLTADSHPSYHTDGFN
- export of GFP-72Q huntingtin^exon1 [4]: promote export

B4: DnaJB2: DnaJ Heat Shock Protein Family (Hsp40) Member B2 (protein, UniProt P25686 2-321, looked up)
DnaJ homolog subfamily B …: ASYYEILDVPRSASADDIKKAYRRKALQWHPDKNPDNKEFAEKKFKEVAEAYEVLSDKHKREIYDRYGREGLTGTGTGPSRAEAGSGGPGFTFTFRSPEEVFREFFGSGDPFAELFDDLGPFSELQNRGSRHSGPFFTFSSSFPGHSDFSSSSFSFSPGAGAFRSVSTSTTFVQGRRITTRRIMENGQERVEVEEDGQLKSVTINGVPDDLALGLELSRREQQPSVTSRSGGTQVQQTPASCPLDSDLSEDEDLQLAMAYSLSEMEAAGKKPAGGREAQHRRQGRPKAQHQDPGLGGTQEGARGEATKRSPSPEEKASRC
- EV-mediated export of misfolded huntingtin (CAD cells [3]): exports misfolded huntingtin in EVs

B5: DnaJB11: related J protein (protein, UniProt Q9UBS4 23-358, looked up)
DnaJ homolog subfamily B …: GRDFYKILGVPRSASIKDIKKAYRKLALQLHPDRNPDDPQAQEKFQDLGAAYEVLSDSEKRKQYDTYGEEGLKDGHQSSHGDIFSHFFGDFGFMFGGTPRQQDRNIPRGSDIIVDLEVTLEEVYAGNFVEVVRNKPVARQAPGKRKCNCRQEMRTTQLGPGRFQMTQEVVCDECPNVKLVNEERTLEVEIEPGVRDGMEYPFIGEGEPHVDGEPGDLRFRIKVVKHPIFERRGDDLYTNVTISLVESLVGFEMDITHLDGHKVHISRDKITRPGAKLWKKGEGLPNFDNNNIKGSLIITFDVDFPKEQLTEEAREGIKQLLKQGSVQKVYNGLQGY
- EV-mediated export of misfolded huntingtin (CAD cells [3]): did not export misfolded huntingtin

B6: DnaJC14: related J protein (protein, UniProt Q6Y2X3 1-702, looked up)
DnaJ homolog subfamily C …: MAQKHPGERGLYGAHHSGGASLRTLGPSVDPEIPSFSGLRDSAGTAPNGTRCLTEHSGPKHTQHPNPAHWLDPSHGPPGGPGPPRDAEDPDQSETSSEEESGVDQELSKENETGNQKDGNSFLSIPSACNCQGTPGIPEGPYSEGGNGSSSNFCHHCTSPALGEDELEEEYDDEESLKFPSDFSRVSSGKKPPSRRQRHRFPTKEDTREGGRRDPRSPGRHRLGRKRSQADKRKGLGLWGAEELCQLGQAGFWWLIELLVLVGEYVETCGHLIYACRQLKSSDLDLFRVWMGVWTGRLGGWAQVMFQFLSQGFYCGVGLFTRFLKLLGALLLLALALFLGFLQLGWRFLVGLGDRLGWRDKATWLFSWLDSPALQRCLTLLRDSRPWQRLVRIVQWGWLELPWVKQNINRQGNAPVASGRYCQPEEEVARLLTMAGVPEDELNPFHVLGVEATASDVELKKAYRQLAVMVHPDKNHHPRAEEAFKVLRAAWDIVSNAEKRKEYEMKRMAENELSRSVNEFLSKLQDDLKEAMNTMMCSRCQGKHRRFEMDREPKSARYCAECNRLHPAEEGDFWAESSMLGLKITYFALMDGKVYDITEWAGCQRVGISPDTHRVPYHISFGSRIPGTRGRQRATPDAPPADLQDFLSRIFQVPPGQMPNGNFFAAPQPAPGAAAASKPNSTVPKGEAKPKRRKKVRRPFQR
- EV-mediated export of misfolded huntingtin (CAD cells [3]): did not export misfolded huntingtin
